Test [1] has as its system RKO tumor xenografts. The experiment in a line: Tumor xenograft study, RKO. The settings on record: Fut-6-negative RKO; 60 mg/kg/day i.p. on days 0-4. The test is classed as in vivo, mice. The protocol:
(§1) FIG. 10A-D illustrates differential expression of specific O-glycosylation enzymes in Apo2L/TRAIL-sensitive and -resistant cancer cell lines: (A) Cell viability was measured after incubation with varying doses of Apo2L/TRAIL. IC50 for each cell line was computed as the concentration of Apo2L/TRAIL that gives 50% loss of viability. Each cell viability experiment was repeated at least three times in presence of low (0.5%) and high (10%) fetal bovine serum. Black, grey, or open symbols depict cell lines that are highly sensitive, moderately sensitive, or resistant to Apo2L/TRAIL, respectively. (B) ppGalNAcT-14 mRNA expression levels (probe set 219271 at) in pancreatic and malignant melanoma cell lines. Cell lines are arranged by tissue type and sensitivity to Apo2L/TRAIL. […] Athymic nude mice carrying GalNAcT-3/Fut-6-positive (left panel) or GalNAcT-3/Fut-6-negative (right panel) tumors received vehicle or Apo2L/TRAIL (60 mg/kg/day i.p. on days 0-4) and tumor volume was monitored (mean ±SE, N=10 mice/group).
(§2) Monosaccharide composition of CHO-cell-derived DR5 was obtained after hydrolysis with 4 N TFA. […] Tumor measurements were collected by a digital caliper and tumor volumes calculated using the formula […] (A=length) (B=width)^2. […]

The test system of test [2] is DLD-1 tumor xenografts. As to the kind of experiment: Tumor xenograft study, DLD-1. The test is classed as in vivo, mice. The settings on record: Fut-6-positive DLD-1; 60 mg/kg/day i.p. on days 0-4. The protocol: as §1, §2
Test [3] relates to panel of human cancer cell lines (23 pancreatic adenocarcinomas, 18 malignant melanomas, 36 colorectal adenocarcinomas). The experiment in a line: Cell viability assay to determine IC50 for Apo2L/TRAIL in a cancer cell line panel. The class given is cell-based. As for the experimental part: FIG. 10A-D illustrates differential expression of specific O-glycosylation enzymes in Apo2L/TRAIL-sensitive and -resistant cancer cell lines: (A) Cell viability was measured after incubation with varying doses of Apo2L/TRAIL. IC50 for each cell line was computed as the concentration of Apo2L/TRAIL that gives 50% loss of viability. Each cell viability experiment was repeated at least three times in presence of low (0.5%) and high (10%) fetal bovine serum. Black, grey, or open symbols depict cell lines that are highly sensitive, moderately sensitive, or resistant to Apo2L/TRAIL, respectively. (B) ppGalNAcT-14 mRNA expression levels (probe set 219271 at) in pancreatic and malignant melanoma cell lines. Cell lines are arranged by tissue type and sensitivity to Apo2L/TRAIL. Black, grey, or open bars depict cell lines as in A. (C) mRNA expression levels of Fut-6 (top panel, probe set 211885_x_at) and ppGalNAcT-3 (bottom panel, probe set 203397_s_at) in colorectal cancer cell lines. […] Athymic nude mice carrying GalNAcT-3/Fut-6-positive (left panel) or GalNAcT-3/Fut-6-negative (right panel) tumors received vehicle or Apo2L/TRAIL (60 mg/kg/day i.p. on days 0-4) and tumor volume was monitored (mean ±SE, N=10 mice/group). […]

For test [4], the system named is Colo320 tumor xenografts. The experiment in a line: Tumor xenograft study, Colo320. The class given is in vivo, mice. The settings on record: Fut-6-negative Colo320; 60 mg/kg/day i.p. on days 0-4. As for the experimental part:
as §1, §2

Take “Apo2L/TRAIL: nontagged soluble recombinant human Apo2L/TRAIL, prepared as described in Lawrence et al.”: the figures for the “effect on growth of established tumor xenografts” value in test [1], in test [2] and in test [4] were “did not respond”, “tumor regression followed by a greatly delayed tumor progression” and “did not respond”, respectively. In addition, the “cell lines classified as highly or moderately sensitive to Apo2L/TRAIL” value in test [3] (29/77 cell lines) worked out at 38%. The “Apo2L/TRAIL concentration required for achieving 50% cell death, mean” value in test [3] (mean over the 29 highly or moderately sensitive cell lines) was found to be 250 ng/mL.

(Values after patent US20080182277A1, “Assays and methods using biomarkers” (Genentech, Inc., priority 2005, published 2008).)
